1 compound from US6586457B2, “Methods for inhibiting bone resorption” (Merck & Co., Inc., priority 1998, dated 2003) can be followed below.

The test system of assay [1] is EP4 mRNA. Description: EP4 mRNA levels in RCT-3 cells (Northern blot). The assay is classed as cell-based, rat. As for the experimental part: (§1) RCT-1 and RCT-3 are clonal cell lines immortalized by SV-40 large T antigen from cells released from fetal rat calvair by a cmbination collagenase/hyaluronidase digestion. RCT-1 cells, derived from cells released during the first 10 minutes of digestion (fraction I), are cultured in RPMI 1640 medium (BRL) with 10% fetal bovine serum and 0.4 mg/ml G418 (BRL). […] RCT-3 cells, immortalized from osteoblast-enriched fraction III cells, are cultured in F-12 medium (BRL) with 5% Fetal bovine serum and 0.4 mg/ml G418. TRAB-11 cells are also immortalized by SV40 large T antigen from adult rat tibia and are cultured in RPMI 1640 medium with 10% FBS and 0.4 mg/ml G418. ROS 17/2.8 rat osteosarcoma cells are cultured in F-12 containing 5% FBS. Osteoblast-enriched (fraction III) primary fetal rat calvaria cells are obtained by collagenase/hyaluronidase digestion of calvariae of 19 day-old rat fetuses. See Rodan et al., Growth stimulation of rat calvaria osteoblastic cells by acidic FGF, Endocrinology, 121, 1919-1923 (1987), which is incorporated by reference herein in its entirety. Cells are released during 30-50 minutes digestion (fraction III) and are cultured in F-12 medium containing 5% FBS. Total RNA is extracted from the tibial metaphysis or diaphysis and calvaria using a guanidinium isothiocyanate-phenol-chloroform method after pulverizing frozen bone samples by a tissue homogenizer. […]

The subject of assay [2] is EP2 mRNA. The assay is described as follows: EP2 mRNA in vivo in bone tissue after systemic administration. As to conditions: RP-1 cells and rat bone tissue. As for the experimental part:
For mRNA localization experiments, 5-week old Sprague-Dawley rats (Charles River) are euthanized by CO2, their tibiae and calvariae are excised, cleaned of soft tissues and frozen immediately in liquid nitrogen. For EP4 regulation experiments, 6-week old rats are given a single injection of either vehicle (7% ethanol in sterile water) or an anabolic dose of PGE2 (Cayman Chemical, Ann Arbor, Mich.), 3-6 mg/kg in the same vehicle) intraperitoneally. Animals are euthenized at several time points post-injection and their tibiae and calvariae, as well as samples from lung and kidney tissues are frozen in liquid nitrogen. Total RNA is extracted from the tibial metaphysis or diaphysis and calvaria using a guanidinium isothiocyanate-phenol-chloroform method after pulverizing frozen bone samples by a tissue homogenizer. See P. Chomczynski et al., Single-step method of RNA isolation by acid guanidium thiocyanate-phenol-chloroform extraction., Analyt Biochem, 162, 156-159 (1987), which is incorporated by reference herein in its entirety. RNA samples ([…]) are separated on 0.9% agarose/formaldehyde gels and transferred onto nylon membranes (Boehringer Mannheim, Germany). […]

Assay [3] deals with RCT-3 cells. Description: Intracellular cAMP in RCT-3 cells. The assay is classed as cell-based, rat. How it is done:
as §1, with “FBS.” for “FBS. Total RNA is extracted from the tibial metaphysis or diaphysis and calvaria using a guanidinium isothiocyanate-phenol-chloroform method after pulverizing frozen bone samples by a tissue homogenizer.”

Assay [4] deals with TRAB-11 cells. Description: Intracellular cAMP in TRAB-11 cells. The format is cell-based, rat. As for the experimental part:
as §1, with “FBS.” for “FBS. Total RNA is extracted from the tibial metaphysis or diaphysis and calvaria using a guanidinium isothiocyanate-phenol-chloroform method after pulverizing frozen bone samples by a tissue homogenizer.”

The subject of assay [5] is EP4 mRNA. The assay is described as follows: EP4 mRNA levels in RP-1 periosteal cells (Northern blot). The format is cell-based, rat. As to conditions: 10^-6 M. As for the experimental part: (§2) RP-1 periosteal cells are spontaneously immortalized from primary cultures of periosteal cells from tibae of 4-week old Sprague-Dawley rats and are cultured in DMEM (BRL, Gaithersburg, Md.) with 10% fetal bovine serum (JRH Biosciences, Lenexa, Kans.). […] Total RNA is extracted from the tibial metaphysis or diaphysis and calvaria using a guanidinium isothiocyanate-phenol-chloroform method after pulverizing frozen bone samples by a tissue homogenizer. See P. Chomczynski et al., Single-step method of RNA isolation by acid guanidium thiocyanate-phenol-chloroform extraction., Analyt Biochem, 162, 156-159 (1987), which is incorporated by reference herein in its entirety. RNA samples ([…]) are separated on 0.9% agarose/formaldehyde gels and transferred onto nylon membranes (Boehringer Mannheim, Germany). Membranes are prehybridized in Hybrisol I (Oncor, Gaithersburg, Md.) and 0.5 mg/ml sonicated salmon sperm DNA (Boehringer) at 42° C. for 3 hours and are hybridized at 42° C. with rat EP2 and mouse EP4 cDNA probes labeled with [^32P]-dCTP (Amersham, Buckinghamshire, UK) by random priming using the rediprime kit (Amersham). After hybridization, membranes are washed 4 times in 2×SSC+0.1% SDS at room temperature for a total of 1 hour and once with 0.2×SSC+0.1% SDS at 55° C. for 1 hour and then exposed to Kodak XAR 2 film at −70° C. using intensifying screens. […]

In assay [6] the test system is EP4 mRNA. The assay is described as follows: EP4 mRNA levels in vivo in bone tissue after systemic administration (Northern blot). The arrangement: species or system rat. As for the experimental part:
For mRNA localization experiments, 5-week old Sprague-Dawley rats (Charles River) are euthanized by CO2, their tibiae and calvariae are excised, cleaned of soft tissues and frozen immediately in liquid nitrogen. For EP4 regulation experiments, 6-week old rats are given a single injection of either vehicle (7% ethanol in sterile water) or an anabolic dose of PGE2 (Cayman Chemical, Ann Arbor, Mich.), 3-6 mg/kg in the same vehicle) intraperitoneally. Animals are euthenized at several time points post-injection and their tibiae and calvariae, as well as samples from lung and kidney tissues are frozen in liquid nitrogen. Total RNA is extracted from the tibial metaphysis or diaphysis and calvaria using a guanidinium isothiocyanate-phenol-chloroform method after pulverizing frozen bone samples by a tissue homogenizer. See P. Chomczynski et al., Single-step method of RNA isolation by acid guanidium thiocyanate-phenol-chloroform extraction., Analyt Biochem, 162, 156-159 (1987), which is incorporated by reference herein in its entirety. RNA samples ([…]) are separated on 0.9% agarose/formaldehyde gels and transferred onto nylon membranes (Boehringer Mannheim, Germany). Membranes are prehybridized in Hybrisol I (Oncor, Gaithersburg, Md.) and 0.5 mg/ml sonicated salmon sperm DNA (Boehringer) at 42° C. for 3 hours and are hybridized at 42° C. with rat EP2 and mouse EP4 cDNA probes labeled with [^32P]-dCTP (Amersham, Buckinghamshire, UK) by random priming using the rediprime kit (Amersham). After hybridization, membranes are washed 4 times in 2×SSC+0.1% SDS at room temperature for a total of 1 hour and once with 0.2×SSC+0.1% SDS at 55° C. for 1 hour and then exposed to Kodak XAR 2 film at −70° C. using intensifying screens. After developing the films, bound probes are removed twice with 0.1% SDS at 80° C. and membranes are hybridized with a human GAPDH (Glyceraldehyde 3-Phosphate Dehydrogenase) cDNA probe (purchased from Clontech, Palo Alto, Calif.) for loading control. To examine if PGE2 regulates EP4 mRNA levels in vivo in bone tissue, […] male rats are injected with PGE2 (3-6 mg/Kg).

For assay [7], the system named is EP2 mRNA. The assay is described as follows: EP2 mRNA expression in RP-1 cells (Northern blot). The format is cell-based, rat. As for the experimental part: as §2
Assay [8] deals with ROS 17/2.8 cells. Description: Intracellular cAMP in ROS 17/2.8 cells. The assay is classed as cell-based, rat. As for the experimental part: as §1, with “FBS.” for “FBS. Total RNA is extracted from the tibial metaphysis or diaphysis and calvaria using a guanidinium isothiocyanate-phenol-chloroform method after pulverizing frozen bone samples by a tissue homogenizer.”
Assay [9] relates to EP4 mRNA. Description: In situ hybridization of EP4 expression in tibial bone marrow cells. The assay is classed as in vivo, rat. As to conditions: rats, single anabolic dose. As for the experimental part: For mRNA localization experiments, 5-week old Sprague-Dawley rats (Charles River) are euthanized by CO2, their tibiae and calvariae are excised, cleaned of soft tissues and frozen immediately in liquid nitrogen. For EP4 regulation experiments, 6-week old rats are given a single injection of either vehicle (7% ethanol in sterile water) or an anabolic dose of PGE2 (Cayman Chemical, Ann Arbor, Mich.), 3-6 mg/kg in the same vehicle) intraperitoneally. Animals are euthenized at several time points post-injection and their tibiae and calvariae, as well as samples from lung and kidney tissues are frozen in liquid nitrogen.
Frozen tibiae are sectioned coronally at […] thickness and sections are mounted on charged slides (Probe On Plus, Fisher Scientific, Springfield, N.J.) and are kept at −70° C. until hybridization. cRNA probes are labeled with ^35S-UTPgS (ICN, Costa Mesa, Calif.) using a Riboprobe II kit (Promega Madison, Wis.). Hybridization is performed overnight at 50° C. […]
In situ hybridization is used in order to localize cells expressing EP4 in bone. In control experiment (vehicle-injected) rats, low expression of EP4 was detected in bone marrow cells. […]

The mark [10] stands for this setting: rats, 3-6 mg/Kg, systemic injection.
[11] abbreviates: young adult rats, 3-6 mg/kg, systemic.

Molecules are shown by their SMILES. Entries after “also recorded” stand apart in the source; their conditions may differ.

For the compound `CCCCCC(O)/C=C/[C@H]1C(O)CC(=O)C1C/C=C\CCCC(=O)O` (stereo partly shown) [PGE2], the “effect on EP4 mRNA levels” value in assay [1] is given as “no effect on EP4 mRNA levels”. The “induction of EP2 mRNA in RP-1 cells and bone tissue” value in assay [2] is “does not include EP2 mRNA”. Besides, in [3], the “effect on intracellular cAMP” value was “markedly induced”. Moreover, the “effect on intracellular cAMP” value in assay [4] is “markedly induced”. For the same compound, in assay [5], the “effect on EP4 mRNA levels” value is recorded as “rapidly increases EP4 mRNA levels; also recorded: increases the level of EP4 mRNA” and the “time of peak of EP4 mRNA levels after treatment” value worked out at 2 h. For the same compound, in assay [6] (setting [10]), the “effect on EP4 mRNA levels in tibial diaphysis” value is recorded as “rapidly increased EP4 mRNA levels” and the “time of peak of EP4 mRNA levels in tibial diaphysis after injection” value is given as 2 h. Besides, in [6] (setting [11]), the “effect on expression of EP4 in tibiae and calvariae” value was “upregulates the expression of EP4”; the “time of peak of EP4 upregulation in tibiae and calvariae” value lay in the range of 1 to 2 h. Further, in [7], the “EP2 mRNA expression before or after treatment” value is “not expressed”. Also, in assay [8], the “effect on intracellular cAMP” value is “no effect on intracellular cAMP”. Also, the “effect on expression of EP4 in bone marrow cells” value in assay [9] is recorded as “increasesd the expression of EP4”.
